Results published in ChEMBL document CHEMBL5143597, “Design and synthesis of novel spirocyclic carboxylic acids as potent and orally bioavailable DGAT1 inhibitors and their biological evaluation” (Bioorg Med Chem Lett, 2022).

Columns and labels:
[1] = Volume of distribution at steady state in Wistar rat at 3 mg/kg, iv or 10 mg/kg, po and measured up to 24 hrs by LC-MS/MS analysis; assay type: ADME, organism-based; details: in vivo, read-out: Vdss
[2] = Drug distribution in C57BL/6 mouse liver 10 mg/kg, po and measured at 8 hrs post dose by LC-MS/MS analysis; assay type: ADME, organism-based; details: read-out: Ct
hERG (KCNH2) = hERG (KCNH2) (Homo sapiens, UniProt Q12809); assay: Displacement of [3H]astemizole from human ERG expressed in HEK293 cell membrane at 30 uM for 2 hrs by Radiometric displacement assay; assay type: toxicity; details: HEK293 cell membranes that express hERG, probe [3H]astemizole
[3] = Drug distribution in C57BL/6 mouse adipose tissue 10 mg/kg, po and measured at 8 hrs post dose by LC-MS/MS analysis; assay type: ADME, organism-based; details: read-out: Ct
[4] = Drug distribution in Wistar rat plasma 10 mg/kg, po and measured at 2 hrs post dose by LC-MS/MS analysis; assay type: ADME, organism-based
[5] = Oral bioavailability in C57BL/6 mouse 10 mg/kg or 5 mg/kg, iv and measured up to 24 hrs by LC-MS/MS analysis; assay type: ADME, organism-based; details: in vivo
[6] = Drug distribution in Wistar rat liver 10 mg/kg, po and measured at 8 hrs post dose by LC-MS/MS analysis; assay type: ADME, organism-based; details: read-out: Ct
[7] = Plasma protein binding in mouse; assay type: ADME, cell-free; details: read-out: PPB (converted)
[8] = Volume of distribution at steady state in C57BL/6 mouse at 5 mg/kg, iv or 10 mg/kg, po and measured up to 24 hrs by LC-MS/MS analysis; assay type: ADME, organism-based; details: in vivo, read-out: Vdss
[9] = Drug distribution in C57BL/6 mouse plasma 10 mg/kg, po and measured at 1 hrs post dose by LC-MS/MS analysis; assay type: ADME, organism-based
[10] = Drug distribution in C57BL/6 mouse skeletal muscle 10 mg/kg, po and measured at 8 hrs post dose by LC-MS/MS analysis; assay type: ADME, organism-based, Skeletal muscle tissue; details: read-out: Ct
[11] = Drug distribution in C57BL/6 mouse liver 10 mg/kg, po and measured at 1 hrs post dose by LC-MS/MS analysis; assay type: ADME, organism-based; details: read-out: Ct
[12] = Clearance in Wistar rat at 3 mg/kg, iv or 10 mg/kg, po and measured up to 24 hrs by LC-MS/MS analysis; assay type: ADME, organism-based; details: in vivo
[13] = Drug distribution in Wistar rat adipose tissue 10 mg/kg, po and measured at 1 hrs post dose by LC-MS/MS analysis; assay type: ADME, organism-based; details: read-out: Ct
[14] = Cmax in Wistar rat at 3 mg/kg, iv or 10 mg/kg, po and measured up to 24 hrs by LC-MS/MS analysis; assay type: ADME, organism-based; set-up: dose 3 mg/kg, time < 24 hrs, route iv; details: in vivo
[15] = Drug distribution in C57BL/6 mouse skeletal muscle 10 mg/kg, po and measured at 2 hrs post dose by LC-MS/MS analysis; assay type: ADME, organism-based, Skeletal muscle tissue; details: read-out: Ct
[16] = Drug distribution in Wistar rat liver 10 mg/kg, po and measured at 2 hrs post dose by LC-MS/MS analysis; assay type: ADME, organism-based; details: read-out: Ct
[17] = AUC in Wistar rat at 3 mg/kg, iv or 10 mg/kg, po and measured up to 24 hrs by LC-MS/MS analysis; assay type: ADME, organism-based; set-up: dose 3 mg/kg, time < 24 hrs, route iv; details: in vivo
[18] = Half life in Wistar rat at 3 mg/kg, iv or 10 mg/kg, po and measured up to 24 hrs by LC-MS/MS analysis; assay type: ADME, organism-based; details: in vivo
[19] = Drug distribution in C57BL/6 mouse brain 10 mg/kg, po and measured at 1 hrs post dose by LC-MS/MS analysis; assay type: ADME, organism-based; details: read-out: Ct
[20] = Drug distribution in C57BL/6 mouse brain 10 mg/kg, po and measured at 8 hrs post dose by LC-MS/MS analysis; assay type: ADME, organism-based; details: read-out: Ct
[21] = Cmax in C57BL/6 mouse at 5 mg/kg, iv or 10 mg/kg, po and measured up to 24 hrs by LC-MS/MS analysis; assay type: ADME, organism-based; set-up: dose 5 mg/kg, time < 24 hrs, route iv; details: in vivo
[22] = Drug distribution in C57BL/6 mouse plasma 10 mg/kg, po and measured at 2 hrs post dose by LC-MS/MS analysis; assay type: ADME, organism-based
[23] = Tmax in C57BL/6 mouse at 5 mg/kg, iv or 10 mg/kg, po and measured up to 24 hrs by LC-MS/MS analysis; assay type: ADME, organism-based; details: in vivo
[24] = Clearance in C57BL/6 mouse at 5 mg/kg, iv r 10 mg/kg, po and measured up to 24 hrs by LC-MS/MS analysis; assay type: ADME, organism-based; details: in vivo
[25] = AUC in C57BL/6 mouse at 5 mg/kg, iv or 10 mg/kg, po and measured up to 24 hrs by LC-MS/MS analysis; assay type: ADME, organism-based; set-up: time < 24 hrs, dose 5 mg/kg, route iv; details: in vivo
[26] = Drug distribution in C57BL/6 mouse skeletal muscle 10 mg/kg, po and measured at 1 hrs post dose by LC-MS/MS analysis; assay type: ADME, organism-based, Skeletal muscle tissue; details: read-out: Ct
[27] = Drug distribution in C57BL/6 mouse adipose tissue 10 mg/kg, po and measured at 2 hrs post dose by LC-MS/MS analysis; assay type: ADME, organism-based; details: read-out: Ct
[28] = Metabolic stability in mouse liver microsomes assessed as parent compound remaining at 1 uM and measured at 30 mins by LC-MS/MS analysis; assay type: ADME, Microsome; details: read-out: Stability
[29] = Drug distribution in C57BL/6 mouse liver 10 mg/kg, po and measured at 2 hrs post dose by LC-MS/MS analysis; assay type: ADME, organism-based; details: read-out: Ct
[30] = Drug distribution in C57BL/6 mouse adipose tissue 10 mg/kg, po and measured at 1 hrs post dose by LC-MS/MS analysis; assay type: ADME, organism-based; details: read-out: Ct
[31] = Drug distribution in Wistar rat liver 10 mg/kg, po and measured at 1 hrs post dose by LC-MS/MS analysis; assay type: ADME, organism-based; details: read-out: Ct
[32] = Drug distribution in Wistar rat plasma 10 mg/kg, po and measured at 1 hrs post dose by LC-MS/MS analysis; assay type: ADME, organism-based
[33] = Drug distribution in C57BL/6 mouse brain 10 mg/kg, po and measured at 2 hrs post dose by LC-MS/MS analysis; assay type: ADME, organism-based; details: read-out: Ct
[34] = Drug distribution in Wistar rat plasma 10 mg/kg, po and measured at 8 hrs post dose by LC-MS/MS analysis; assay type: ADME, organism-based
[35] = Metabolic stability in rat liver microsomes assessed as parent compound remaining at 1 uM and measured at 30 mins by LC-MS/MS analysis; assay type: ADME, Microsome; details: read-out: Stability
[36] = Drug distribution in Wistar rat adipose tissue 10 mg/kg, po and measured at 8 hrs post dose by LC-MS/MS analysis; assay type: ADME, organism-based; details: read-out: Ct
[37] = Tmax in Wistar rat at 3 mg/kg, iv or 10 mg/kg, po and measured up to 24 hrs by LC-MS/MS analysis; assay type: ADME, organism-based; details: in vivo
[38] = Oral bioavailability in Wistar rat at 10 mg/kg or 3 mg/kg, iv and measured up to 24 hrs by LC-MS/MS analysis; assay type: ADME, organism-based; details: in vivo
[39] = Half life in C57BL/6 mouse at 5 mg/kg, iv or 10 mg/kg, po and measured up to 24 hrs by LC-MS/MS analysis; assay type: ADME, organism-based; details: in vivo
[40] = Apparent permeability across apical to basolateral side in MDCK cells at 2.5 uM for 90 mins; assay type: ADME, cell-based, Canis lupus familiaris; details: dog
[41] = Drug distribution in C57BL/6 mouse plasma 10 mg/kg, po and measured at 8 hrs post dose by LC-MS/MS analysis; assay type: ADME, organism-based
[42] = Drug distribution in Wistar rat adipose tissue 10 mg/kg, po and measured at 2 hrs post dose by LC-MS/MS analysis; assay type: ADME, organism-based; details: read-out: Ct
[43] = Plasma protein binding in rat; assay type: ADME, cell-free; details: read-out: PPB
[44] = Metabolic stability in human liver microsomes assessed as parent compound remaining at 1 uM and measured at 30 mins by LC-MS/MS analysis; assay type: ADME, Microsome; details: read-out: Stability

Sequence of hERG (KCNH2) (Q12809 whole entry): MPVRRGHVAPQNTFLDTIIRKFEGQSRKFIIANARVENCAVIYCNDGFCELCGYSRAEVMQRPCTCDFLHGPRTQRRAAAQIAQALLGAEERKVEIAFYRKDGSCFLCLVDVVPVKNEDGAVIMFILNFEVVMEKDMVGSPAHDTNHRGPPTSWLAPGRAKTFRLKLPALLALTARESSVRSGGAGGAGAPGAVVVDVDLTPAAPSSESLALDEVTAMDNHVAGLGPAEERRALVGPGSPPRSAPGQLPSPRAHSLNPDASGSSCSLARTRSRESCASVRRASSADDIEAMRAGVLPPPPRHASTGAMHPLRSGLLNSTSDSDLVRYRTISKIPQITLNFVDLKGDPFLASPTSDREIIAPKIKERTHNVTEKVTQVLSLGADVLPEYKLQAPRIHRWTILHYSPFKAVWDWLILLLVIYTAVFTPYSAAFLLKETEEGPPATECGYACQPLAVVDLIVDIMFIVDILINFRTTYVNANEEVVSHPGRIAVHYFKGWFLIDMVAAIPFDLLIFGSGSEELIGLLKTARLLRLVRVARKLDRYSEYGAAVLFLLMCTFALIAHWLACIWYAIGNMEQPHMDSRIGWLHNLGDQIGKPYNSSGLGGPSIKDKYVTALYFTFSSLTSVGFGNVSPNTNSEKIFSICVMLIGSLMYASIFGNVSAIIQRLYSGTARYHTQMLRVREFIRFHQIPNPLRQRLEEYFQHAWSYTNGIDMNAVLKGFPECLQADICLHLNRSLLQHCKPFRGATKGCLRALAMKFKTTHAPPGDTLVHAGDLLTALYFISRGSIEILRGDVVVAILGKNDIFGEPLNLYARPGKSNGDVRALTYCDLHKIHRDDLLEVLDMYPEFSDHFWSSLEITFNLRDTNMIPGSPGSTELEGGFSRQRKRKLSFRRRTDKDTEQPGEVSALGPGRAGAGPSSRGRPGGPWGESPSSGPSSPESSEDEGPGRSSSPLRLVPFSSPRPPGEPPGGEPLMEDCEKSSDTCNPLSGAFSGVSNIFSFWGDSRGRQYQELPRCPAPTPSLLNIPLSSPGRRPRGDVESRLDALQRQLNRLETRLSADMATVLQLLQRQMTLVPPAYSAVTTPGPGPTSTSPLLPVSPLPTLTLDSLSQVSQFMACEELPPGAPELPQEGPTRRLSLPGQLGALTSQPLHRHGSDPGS

O=C(Nc1ccc(N2CCC3(CC2)CC(C(=O)O)C3)nc1)c1nnc(Nc2ccc(F)c(F)c2)o1
Vd [1]: 0.3 L/kg
concentration at 8 h [2]: 5300 nM
inhibition at 2 h, 30 µM (hERG (KCNH2)): 22%
concentration at 8 h [3]: 80 nM
concentration at 2 h [4]: 47000 nM
bioavailability [5]: 97%
concentration at 8 h [6]: 32000 nM
fraction unbound [7]: 0.02
Vd [8]: 2.5 L/kg
concentration at 1 h [9]: 1900 nM
concentration at 8 h [10]: 20 nM
concentration at 1 h [11]: 153000 nM
clearance [12]: 2.3 mL/min/kg
concentration at 1 h [13]: 1890 nM
Cmax [14]: 57000 nM
concentration at 2 h [15]: 180 nM
concentration at 2 h [16]: 72000 nM
AUC at 24 h [17]: 47 µM·h
half-life [18]: 210 min
concentration at 1 h [19]: 360 nM
concentration at 8 h [20]: 110 nM
Cmax [21]: 4500 nM
concentration at 2 h [22]: 1160 nM
Tmax [23]: 30 min
clearance [24]: 58 mL/min/kg
AUC at 24 h [25]: 2.9 µM·h
concentration at 1 h [26]: 170 nM
concentration at 2 h [27]: 140 nM
remaining at 0.5 h, 1 µM [28]: 94%
concentration at 2 h [29]: 96000 nM
concentration at 1 h [30]: 270 nM
concentration at 1 h [31]: 105000 nM
concentration at 1 h [32]: 37000 nM
concentration at 2 h [33]: 260 nM
concentration at 8 h [34]: 4000 nM
remaining at 0.5 h, 1 µM [35]: 92%
concentration at 8 h [36]: 340 nM
Tmax [37]: 30 min
bioavailability [38]: 92%
half-life [39]: 60 min
Papp A→B at 1.5 h, 2.5 µM [40]: 2.8 ×10⁻⁶ cm/s
concentration at 8 h [41]: 40 nM
concentration at 2 h [42]: 2500 nM
fraction unbound [43]: 0.01
remaining at 0.5 h, 1 µM [44]: 89%
